Each structure is given as a SMILES string.

The test system of one experiment is HIV-IIIb. The experiment in a line: Test A: Antiviral Assays in MT4 Cells. To be noted: Human immunodeficiency virus 1, IIIB, MT4, 120 h, MT-4 cells infected with HIV-IIIb (0.004 m.o.i.), 5 days of incubation, CellTiter-Glo chemiluminescence readout. Type of experiment: cell-based. The procedure, abridged:
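MT-4 cells pre-infected with HIV-IIIb (0.004 m.o.i.) or mock-infected, 2000 cells per well, were exposed to 10 three-fold serial compound dilutions in quadruplicate in RPMI 1640 with 10% FBS. After 5 days at 37° C, cell viability read by CellTiter-Glo chemiluminescence.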
In general terms: ATP-based viability assays read luminescence as a measure of living cells.
For the compound `Cc1cc2nc(CO)ccc2c(-c2ccc3c4c(ccnc24)CCO3)c1[C@H](OC(C)(C)C)C(=O)O` [Compound 21, (S)-2-tert-Butoxy-2-((R)-5-(2,3-dihydropyrano[4,3,2-de]quinolin-7-yl)-2-(hydroxymethyl)-7-methylquinolin-6-yl)acetic acid], a half-maximal response (EC50) required 231 nM.
Still for that read-out and setting: the same measure for `Cc1cc2nc(CN(C)C)ccc2c(-c2ccc(Cl)cc2)c1[C@H](OC(C)(C)C)C(=O)O` [Compound 9, (S)-2-tert-butoxy-2-(5-(4-chlorophenyl)-2-((dimethylamino)methyl)-7-methylquinolin-6-yl)acetic acid]: 173 nM; for `Cc1cc2[nH]c(=O)ccc2c(-c2ccc(Cl)cc2)c1[C@H](OC(C)(C)C)C(=O)O` [Compound 8L, (S)-2-tert-butoxy-2-(5-(4-chlorophenyl)-7-methyl-2-oxo-1,2-dihydroquinolin-6-yl)acetic acid]: 559 nM.
Same read-out and setting: the same measure for `Cc1cc2nc(C#CC3CC3)ccc2c(-c2ccc3c4c(ccnc24)CCO3)c1[C@H](OC(C)(C)C)C(=O)O` (atropisomer, axis not shown) [Compound 42, (S)-2-tert-butoxy-2-((R)-2-(cyclopropylethynyl)-5-(2,3-dihydropyrano[4,3,2-de]quinolin-7-yl)-7-methylquinolin-6-yl)acetic acid]: 46 nM.
Still for that read-out and setting: the result for `Cc1cc2nc(Cc3ccccc3)ccc2c(-c2ccc3c4c(ccnc24)CCO3)c1[C@H](OC(C)(C)C)C(=O)O` (atropisomer, axis not shown) [Compound 53, (S)-2-((R)-2-Benzyl-5-(2,3-dihydropyrano[4,3,2-de]quinolin-7-yl)-7-methylquinolin-6-yl)-2-tert-butoxyacetic acid] reads 360 nM; that for `Cc1cc2c(ccc3nc(C(C)C)cn32)c(-c2ccc3c4c(ccnc24)CCO3)c1[C@H](OC(C)(C)C)C(=O)O` [Compound 60, (S)-2-tert-Butoxy-2-((R)-6-(2,3-dihydropyrano[4,3,2-de]quinolin-7-yl)-2-isopropyl-8-methylimidazo[1,2-a]quinolin-7-yl)acetic acid], 305 nM.
In the case of `Cc1cc2nc(-c3cscn3)ccc2c(-c2ccc(Cl)cc2)c1[C@H](OC(C)(C)C)C(=O)O` [Compound 76, (S)-2-tert-butoxy-2-(5-(4-chlorophenyl)-7-methyl-2-(thiazol-4-yl)quinolin-6-yl)acetic acid], the half-maximal effective concentration (EC50) – broadly, the concentration giving half of the maximal effect – was 267 nM.
The same measure, in the same setting: the result for `Cc1cc2nc(-c3cccnc3)ccc2c(-c2ccc3c4c(ccnc24)CCO3)c1[C@H](OC(C)(C)C)C(=O)O` (atropisomer, axis not shown) [Compound 81, (S)-2-tert-butoxy-2-((R)-5-(2,3-dihydropyrano[4,3,2-de]quinolin-7-yl)-7-methyl-2-(pyridin-3-yl)quinolin-6-yl)acetic acid] reads 69 nM; that for `Cc1cc2c(ccc(=O)n2Cc2ccccc2)c(-c2ccc3c4c(ccnc24)CCO3)c1[C@H](OC(C)(C)C)C(=O)O` (atropisomer, axis not shown) [Compound 68, (S)-2-((R)-1-benzyl-5-(2,3-dihydropyrano[4,3,2-de]quinolin-7-yl)-7-methyl-2-oxo-1,2-dihydroquinolin-6-yl)-2-tert-butoxyacetic acid], 29200 nM; that for `Cc1cc2c(ccc3nnnn32)c(-c2ccc(Cl)cc2)c1[C@H](OC(C)(C)C)C(=O)O` [Compound 64, (S)-2-tert-butoxy-2-(6-(4-chlorophenyl)-8-methyltetrazolo[1,5-a]quinolin-7-yl)acetic acid], 290 nM.
Turning to `Cc1cc2nc(C3CCCCC3)ccc2c(-c2ccc3c4c(ccnc24)CCO3)c1[C@H](OC(C)(C)C)C(=O)O` (atropisomer, axis not shown) [Compound 52, (S)-2-tert-Butoxy-2-((R)-2-cyclohexyl-5-(2,3-dihydropyrano[4,3,2-de]quinolin-7-yl)-7-methylquinolin-6-yl)acetic acid], the EC50 turned out to be 25 nM.
The same measure, in the same setting: the same measure for `Cc1cc2nc(NCc3ccncc3)ccc2c(-c2ccc(Cl)cc2)c1[C@H](OC(C)(C)C)C(=O)O` [Compound 33, (S)-2-tert-Butoxy-2-(5-(4-chlorophenyl)-7-methyl-2-(pyridin-4-ylmethylamino)quinolin-6-yl)acetic acid]: 95 nM; for `Cc1cc2nc(CN(C)C)ccc2c(C2=CCCCC2)c1[C@H](OC(C)(C)C)C(=O)O` [Compound 25, (S)-2-tert-butoxy-2-(5-cyclohexenyl-2-((dimethylamino)methyl)-7-methylquinolin-6-yl)acetic acid]: 346 nM.
The same measure, in the same setting: the result for `CCOCc1ccc2c(-c3ccc(Cl)cc3)c([C@H](OC(C)(C)C)C(=O)O)c(C)cc2n1` [Compound 15, (S)-2-tert-butoxy-2-(5-(4-chlorophenyl)-2-(ethoxymethyl)-7-methylquinolin-6-yl)acetic acid] reads 334 nM; that for `Cc1cc2[nH]c(=O)ccc2c(-c2ccc3c4c(ccnc24)CCO3)c1[C@H](OC(C)(C)C)C(=O)O` [Compound 97, (S)-2-tert-Butoxy-2-((R)-5-(2,3-dihydropyrano[4,3,2-de]quinolin-7-yl)-7-methyl-2-oxo-1,2-dihydroquinolin-6-yl)acetic acid], 898 nM.
Consider `Cc1cc2nc(-c3ccn[nH]3)ccc2c(-c2ccc3c4c(ccnc24)CCO3)c1[C@H](OC(C)(C)C)C(=O)O` (atropisomer, axis not shown) [Compound 71, (S)-2-tert-butoxy-2-((R)-5-(2,3-dihydropyrano[4,3,2-de]quinolin-7-yl)-7-methyl-2-(1H-pyrazol-5-yl)quinolin-6-yl)acetic acid], for which the 50% effective concentration (EC50) is 118 nM.
Same read-out and setting: the same measure for `Cc1cc2c(ccc(=O)n2C)c(-c2ccc(Cl)cc2)c1[C@H](OC(C)(C)C)C(=O)O` [Compound 67, (S)-2-tert-butoxy-2-(5-(4-chlorophenyl)-1,7-dimethyl-2-oxo-1,2-dihydroquinolin-6-yl)acetic acid]: 273 nM.
On the same count and under the same terms, the same measure for `Cc1ccc2c(-c3ccc(Cl)cc3)c([C@H](OC(C)(C)C)C(=O)O)c(Cl)cc2n1` [Compound 1L, (S)-2-tert-butoxy-2-(7-chloro-5-(4-chlorophenyl)-2-methylquinolin-6-yl)acetic acid]: 170 nM.
The same measure, in the same setting: the same measure for `Cc1cc2nc(C(F)F)ccc2c(-c2ccc(Cl)cc2)c1[C@H](OC(C)(C)C)C(=O)O` [Compound 100, (S)-2-tert-butoxy-2-(5-(4-chlorophenyl)-2-(difluoromethyl)-7-methylquinolin-6-yl)acetic acid]: 75 nM; for `Cc1cc2nc(C3CC3)ccc2c(-c2ccc(Cl)cc2)c1[C@H](OC(C)(C)C)C(=O)O` [Compound 28, (S)-2-tert-butoxy-2-(5-(4-chlorophenyl)-2-cyclopropyl-7-methylquinolin-6-yl)acetic acid]: 43 nM.
In the case of `COCCOCCCNc1ccc2c(-c3ccc(Cl)cc3)c([C@H](OC(C)(C)C)C(=O)O)c(C)cc2n1` [Compound 35, (S)-2-tert-butoxy-2-(5-(4-chlorophenyl)-2-(3-(2-methoxyethoxy)propylamino)-7-methylquinolin-6-yl)acetic acid], the half-maximal effective concentration (EC50) amounted to 157 nM.

The same experiment, now with this note: MT-4 cells infected with HIV-IIIb (0.004 m.o.i.), 5 days of incubation, CellTiter-Glo chemiluminescence readout.
The compound `Cc1ccc2c(-c3ccc4c5c(ccnc35)CCO4)c([C@H](OC(C)(C)C)C(=O)O)c(C)cc2n1` [Compound 23, (S)-2-tert-Butoxy-2-((S)-5-(2,3-dihydropyrano[4,3,2-de]quinolin-7-yl)-2,7-dimethylquinolin-6-yl)acetic acid] had an EC50 of 26200 nM.
